Measured values published in patent US20090018134A1, “Compounds - 945” (AstraZeneca AB, priority 2007, published 2009).

biological target: T1, mTOR (Homo sapiens, UniProt P42345); experiment: In Vitro mTOR Kinase Assay (Echo), Test (a)(ii); format: biochemical; details: table of enzyme assay Test (a)(ii); read-out: Test (a)(ii) IC50
T1 construct: FLAG; made in house
Procedure, shortened: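 Enzyme: HEK293-expressed, FLAG-purified mTOR C-terminal fragment (aa 1362-2549). Rxn 2 h RT with biotinylated peptide, stopped with EDTA 50 mM/BSA/Tris pH 7.4. Detection: T389 phospho-antibody AlphaScreen, 680 nm excitation. IC50.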

T1 sequence (P42345 1362-2549): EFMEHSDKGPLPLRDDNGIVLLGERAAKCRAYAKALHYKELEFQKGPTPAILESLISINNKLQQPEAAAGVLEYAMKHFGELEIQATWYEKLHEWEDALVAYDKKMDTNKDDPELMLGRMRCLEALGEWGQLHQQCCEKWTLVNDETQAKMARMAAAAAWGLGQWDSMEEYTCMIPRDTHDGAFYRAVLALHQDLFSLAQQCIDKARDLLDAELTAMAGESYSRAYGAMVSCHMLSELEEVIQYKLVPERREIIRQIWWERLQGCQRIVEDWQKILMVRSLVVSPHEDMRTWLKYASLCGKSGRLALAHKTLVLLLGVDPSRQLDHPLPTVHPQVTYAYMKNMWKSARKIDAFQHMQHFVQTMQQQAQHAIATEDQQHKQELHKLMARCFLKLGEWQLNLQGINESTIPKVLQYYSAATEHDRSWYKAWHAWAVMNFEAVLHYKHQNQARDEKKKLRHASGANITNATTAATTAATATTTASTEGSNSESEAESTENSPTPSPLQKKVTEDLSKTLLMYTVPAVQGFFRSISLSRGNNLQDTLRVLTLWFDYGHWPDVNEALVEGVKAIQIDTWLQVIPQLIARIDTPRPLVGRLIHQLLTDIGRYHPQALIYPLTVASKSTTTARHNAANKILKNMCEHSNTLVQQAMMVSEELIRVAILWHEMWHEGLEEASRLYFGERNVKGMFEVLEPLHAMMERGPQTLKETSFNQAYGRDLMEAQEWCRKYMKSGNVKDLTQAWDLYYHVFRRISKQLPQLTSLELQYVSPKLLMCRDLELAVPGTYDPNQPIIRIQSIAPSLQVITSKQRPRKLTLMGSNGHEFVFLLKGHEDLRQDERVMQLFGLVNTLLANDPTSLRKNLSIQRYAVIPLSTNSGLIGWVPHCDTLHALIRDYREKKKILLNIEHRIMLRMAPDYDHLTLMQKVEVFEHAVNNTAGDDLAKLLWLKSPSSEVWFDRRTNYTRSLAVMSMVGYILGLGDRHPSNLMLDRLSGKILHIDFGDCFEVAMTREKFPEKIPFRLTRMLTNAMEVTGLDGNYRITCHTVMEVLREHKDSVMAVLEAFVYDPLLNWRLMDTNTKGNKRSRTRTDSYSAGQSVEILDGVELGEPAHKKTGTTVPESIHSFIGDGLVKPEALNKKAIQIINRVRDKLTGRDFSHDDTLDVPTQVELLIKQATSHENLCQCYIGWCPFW

Row | IC50 | Compound
1 | 6.88 nM | C[C@H]1COCCN1c1cc(C2(S(=O)(=O)c3ccc(F)cc3)CCC2)nc(-c2ccc(NC(=O)NCCCO)cc2)n1 [Example 65a, 1-[4-[4-[1-(4-fluorophenyl)sulfonylcyclobutyl]-6-[(3S)-3-methylmorpholin-4-yl]pyrimidin-2-yl]phenyl]-3-(3-hydroxypropyl)urea]
2 | 3.42 nM | C[C@H]1COCCN1c1cc(C2(S(=O)(=O)c3ccc(F)cc3)CCC2)nc(-c2ccc(NC(=O)NCCO)cc2)n1 [Example 65b, 1-[4-[4-[1-(4-fluorophenyl)sulfonylcyclobutyl]-6-[(3S)-3-methylmorpholin-4-yl]pyrimidin-2-yl]phenyl]-3-(2-hydroxyethyl)urea]
3 | 15.1 nM | C[C@H]1COCCN1c1cc(C2(S(=O)(=O)c3ccc(F)cc3)CCC2)nc(-c2ccc(NC(=O)NC(C)(C)CO)cc2)n1 [Example 65c, 1-[4-[4-[1-(4-fluorophenyl)sulfonylcyclobutyl]-6-[(3S)-3-methylmorpholin-4-yl]pyrimidin-2-yl]phenyl]-3-(1-hydroxy-2-methylpropan-2-yl)urea]
4 | 4.48 nM | C[C@@H](CO)NC(=O)Nc1ccc(-c2nc(N3CCOC[C@@H]3C)cc(C3(S(=O)(=O)c4ccc(F)cc4)CCC3)n2)cc1 [Example 65d, 1-[4-[4-[1-(4-fluorophenyl)sulfonylcyclobutyl]-6-[(3S)-3-methylmorpholin-4-yl]pyrimidin-2-yl]phenyl]-3-[(2S)-1-hydroxypropan-2-yl]urea]
5 | 11.4 nM | C[C@H](CO)NC(=O)Nc1ccc(-c2nc(N3CCOC[C@@H]3C)cc(C3(S(=O)(=O)c4ccc(F)cc4)CCC3)n2)cc1 [Example 65e, 1-[4-[4-[1-(4-fluorophenyl)sulfonylcyclobutyl]-6-[(3S)-3-methylmorpholin-4-yl]pyrimidin-2-yl]phenyl]-3-[(2R)-1-hydroxypropan-2-yl]urea]
6 | 3.03 nM | C[C@H]1COCCN1c1cc(C2(S(=O)(=O)c3nccs3)CC2)nc(-c2ccc(NC(=O)NCCO)cc2)n1 [Example 66, 3-(2-Hydroxyethyl)-1-[4-[4-[(3S)-3-methylmorpholin-4-yl]-6-[1-(1,3-thiazol-2-ylsulfonyl)cyclopropyl]pyrimidin-2-yl]phenyl]urea]
7 | 4.15 nM | C[C@H]1COCCN1c1cc(C2(S(=O)(=O)c3nccs3)CC2)nc(-c2ccc(NC(=O)NCCCO)cc2)n1 [Example 66a, 3-(3-hydroxypropyl)-1-[4-[4-[(3S)-3-methylmorpholin-4-yl]-6-[1-(1,3-thiazol-2-ylsulfonyl)cyclopropyl]pyrimidin-2-yl]phenyl]urea]
8 | 24.6 nM | C[C@H]1COCCN1c1cc(C2(S(=O)(=O)c3nccs3)CC2)nc(-c2ccc(NC(=O)NCc3ncc[nH]3)cc2)n1 [Example 66b, 3-(1H-imidazol-2-ylmethyl)-1-[4-[4-[(3S)-3-methylmorpholin-4-yl]-6-[1-(1,3-thiazol-2-ylsulfonyl)cyclopropyl]pyrimidin-2-yl]phenyl]urea]
9 | 1 nM | C[C@H]1COCCN1c1cc(C2(S(=O)(=O)c3nccs3)CC2)nc(-c2ccc(NC(=S)NCCO)cc2)n1 [Example 67, 3-(2-Hydroxyethyl)-1-[4-[4-[(3S)-3-methylmorpholin-4-yl]-6-[1-(1,3-thiazol-2-ylsulfonyl)cyclopropyl]pyrimidin-2-yl]phenyl]thiourea]
10 | 1.41 nM | Cc1ccc(S(=O)(=O)C2(c3cc(N4CCOC[C@@H]4C)nc(-c4ccc(NC(=O)NC5CC5)cc4)n3)CCC2)cc1 [Example 68, 3-Cyclopropyl-1-[4-[4-[(3S)-3-methylmorpholin-4-yl]-6-[1-(4-methylphenyl)sulfonylcyclobutyl]pyrimidin-2-yl]phenyl]urea]
11 | 1.74 nM | Cc1ccc(S(=O)(=O)C2(c3cc(N4CCOC[C@@H]4C)nc(-c4ccc(NC(=O)Nc5cnn(C)c5)cc4)n3)CCC2)cc1 [Example 68a]
12 | 7.88 nM | CCNC(=O)Nc1ccc(-c2nc(N3CCOC[C@H]3C)cc(C3(S(=O)(=O)c4ccccc4)CC3)n2)cc1 [Example 69, 1-[4-[4-[1-(Benzenesulfonyl)cyclopropyl]-6-[(3R)-3-methylmorpholin-4-yl]pyrimidin-2-yl]phenyl]-3-ethylurea]
13 | 2 nM | CCNC(=O)Nc1ccc(-c2nc(N3CCOC[C@@H]3CC)cc(C3(S(=O)(=O)c4ccccc4)CC3)n2)cc1 [Example 70, 1-[4-[4-[1-(Benzenesulfonyl)cyclopropyl]-6-[(3S)-3-ethylmorpholin-4-yl]pyrimidin-2-yl]phenyl]-3-ethylurea]
14 | 18.2 nM | CCNC(=O)Nc1ccc(-c2nc(N3CCOCC3CO)cc(C3(S(=O)(=O)c4ccccc4)CC3)n2)cc1 (centres unmarked) [Example 71, 1-[4-[4-[1-(Benzenesulfonyl)cyclopropyl]-6-[3-(hydroxymethyl)morpholin-4-yl]pyrimidin-2-yl]phenyl]-3-ethylurea]

Second part, the molecule before the results:

Row | Compound | IC50
15 | C[C@H]1COCCN1c1cc(C2(S(=O)(=O)c3ccc(F)c(F)c3)CC2)nc(-c2ccc(NC(=O)NCC(F)F)cc2)n1 [Example 64m, 3-(2,2-difluoroethyl)-1-[4-[4-[1-(3,4-difluorophenyl)sulfonylcyclo-propyl]-6-[(3S)-3-methylmorpholin-4-yl]pyrimidin-2-yl]phenyl]urea] | 40.8 nM
16 | C[C@H]1COCCN1c1cc(C2(S(=O)(=O)c3ccc(NCCO)c(F)c3)CC2)nc(-c2ccc(NC(=O)NCCO)cc2)n1 [Example 64n, 1-[4-[4-[1-[3-fluoro-4-(2-hydroxyethylamino)phenyl]sulfon-ylcyclopropyl]-6-[(3S)-3-methylmorpholin-4-yl]pyrimidin-2-yl]phenyl]-3-(2-hydroxyethyl)urea] | 16.1 nM
17 | C[C@H]1COCCN1c1cc(C2(S(=O)(=O)c3ccccc3)CCC2)nc(-c2ccc(NC(=O)NC(C)(C)CO)cc2)n1 [Example 64o, 1-[4-[4-[1-(benzenesulfonyl)cyclobutyl]-6-[(3S)-3-methylmorpholin-4-yl]pyrimidin-2-yl]phenyl]-3-(1-hydroxy-2-methylpropan-2-yl)urea] | 3.45 nM
18 | C[C@@H](CO)NC(=O)Nc1ccc(-c2nc(N3CCOC[C@@H]3C)cc(C3(S(=O)(=O)c4ccccc4)CCC3)n2)cc1 [Example 64p, 1-[4-[4-[1-(benzenesulfonyl)cyclobutyl]-6-[(3S)-3-methylmorpholin-4-yl]pyrimidin-2-yl]phenyl]-3-[(2S)-1-hydroxypropan-2-yl]urea] | 3.98 nM
19 | C[C@H](CO)NC(=O)Nc1ccc(-c2nc(N3CCOC[C@@H]3C)cc(C3(S(=O)(=O)c4ccccc4)CCC3)n2)cc1 [Example 64q, 1-[4-[4-[1-(benzenesulfonyl)cyclobutyl]-6-[(3S)-3-methylmorpholin-4-yl]pyrimidin-2-yl]phenyl]-3-[(2R)-1-hydroxypropan-2-yl]urea] | 4.67 nM
20 | C[C@H]1COCCN1c1cc(C2(S(=O)(=O)c3ccccc3)CCC2)nc(-c2ccc(NC(=O)NCCCO)cc2)n1 [Example 64r, 1-[4-[4-[1-(benzenesulfonyl)cyclobutyl]-6-[(3S)-3-methylmorpholin-4-yl]pyrimidin-2-yl]phenyl]-3-(3-hydroxypropyl)urea] | 4.18 nM
21 | C[C@H]1COCCN1c1cc(C2(S(=O)(=O)c3ccccc3)CCC2)nc(-c2ccc(NC(=O)NCCF)cc2)n1 [Example 64s, 1-[4-[4-[1-(benzenesulfonyl)cyclobutyl]-6-[(3S)-3-methylmorpholin-4-yl]pyrimidin-2-yl]phenyl]-3-(2-fluoroethyl)urea] | 2.96 nM
22 | C[C@H]1COCCN1c1cc(C2(S(=O)(=O)C3CC3)CC2)nc(-c2ccc(NC(=O)NCCF)cc2)n1 [Example 64t, 1-[4-[4-(1-cyclopropylsulfonylcyclopropyl)-6-[(3S)-3-methylmorpholin-4-yl]pyrimidin-2-yl]phenyl]-3-(2-fluoroethyl)urea] | 11.4 nM
23 | C[C@H]1COCCN1c1cc(C2(S(=O)(=O)C3CC3)CC2)nc(-c2ccc(NC(=O)NCC(F)F)cc2)n1 [Example 64u, 1-[4-[4-(1-cyclopropylsulfonylcyclopropyl)-6-[(3S)-3-methylmorpholin-4-yl]pyrimidin-2-yl]phenyl]-3-(2,2-difluoroethyl)urea] | 13.9 nM
24 | C[C@H]1COCCN1c1cc(C2(S(=O)(=O)C3CC3)CC2)nc(-c2ccc(NC(=O)NCc3ncc[nH]3)cc2)n1 [Example 64v, 1-[4-[4-(1-cyclopropylsulfonylcyclopropyl)-6-[(3S)-3-methylmorpholin-4-yl]pyrimidin-2-yl]phenyl]-3-(1H-imidazol-2-ylmethyl)urea] | 146 nM
25 | C[C@H]1COCCN1c1cc(C2(S(=O)(=O)C3CC3)CCC2)nc(-c2ccc(NC(=O)NC(C)(C)CO)cc2)n1 [Example 64w, 1-[4-[4-(1-cyclopropylsulfonylcyclobutyl)-6-[(3S)-3-methylmorpholin-4-yl]pyrimidin-2-yl]phenyl]-3-(1-hydroxy-2-methylpropan-2-yl)urea] | 16.1 nM
26 | C[C@@H](CO)NC(=O)Nc1ccc(-c2nc(N3CCOC[C@@H]3C)cc(C3(S(=O)(=O)C4CC4)CCC3)n2)cc1 [Example 64x, 1-[4-[4-(1-cyclopropylsulfonylcyclobutyl)-6-[(3S)-3-methylmorpholin-4-yl]pyrimidin-2-yl]phenyl]-3-[(2S)-1-hydroxypropan-2-yl]urea] | 7.61 nM
27 | C[C@H](CO)NC(=O)Nc1ccc(-c2nc(N3CCOC[C@@H]3C)cc(C3(S(=O)(=O)C4CC4)CCC3)n2)cc1 [Example 64y, 1-[4-[4-(1-cyclopropylsulfonylcyclobutyl)-6-[(3S)-3-methylmorpholin-4-yl]pyrimidin-2-yl]phenyl]-3-[(2R)-1-hydroxypropan-2-yl]urea] | 12.5 nM
28 | C[C@H]1COCCN1c1cc(C2(S(=O)(=O)C3CC3)CCC2)nc(-c2ccc(NC(=O)NCCCO)cc2)n1 [Example 64z, 1-[4-[4-(1-cyclopropylsulfonylcyclobutyl)-6-[(3S)-3-methylmorpholin-4-yl]pyrimidin-2-yl]phenyl]-3-(3-hydroxypropyl)urea] | 8.66 nM
29 | C[C@H]1COCCN1c1cc(C2(S(=O)(=O)c3ccc(F)cc3)CCC2)nc(-c2ccc(NC(=O)NCc3ncc[nH]3)cc2)n1 [Example 65, 1-[4-[4-[1-(4-Fluorophenyl)sulfonylcyclobutyl]-6-[(3S)-3-methylmorpholin-4-yl]pyrimidin-2-yl]phenyl]-3-(1H-imidazol-2-ylmethyl)urea] | 30 nM
